Article PMC11822212, “High-throughput screening identifies Aurora kinase B as a critical therapeutic target for Merkel cell carcinoma” (Nature Communications, 2025)
Counter-ions that a name gives are not always drawn.

Columns and labels:
[1] = system: WAGA cells (VP-MCC); assay: qHTS cell viability (CellTiter-Glo, 72 h; primary and follow-up small molecule screen); format: cell-based, human
[2] = system: VN-MCC cell lines (MCC13, MCC26, UISO); assay: qHTS cell viability, VN-MCC cell lines as a group (mean AUC, VN.MCC.avg); format: cell-based, human; conditions: for VN-MCC_Avg_AUC: mean AUC of VN-MCC cell lines
[3] = system: CRL-7250 cells; assay: qHTS cell viability (CellTiter-Glo, 72 h; primary screen), control cell line; format: cell-based
[4] = system: MKL-2 cells (VP-MCC); assay: qHTS cell viability (CellTiter-Glo, 72 h; primary and follow-up small molecule screen); format: cell-based, human
[5] = system: NIH-3T3 cells; assay: qHTS cell viability (CellTiter-Glo, 72 h; primary screen), control cell line; format: cell-based, mouse
[6] = system: HEK293T cells; assay: as above; format: cell-based, human
[7] = system: MKL-1 cells (VP-MCC); assay: qHTS cell viability (CellTiter-Glo, 72 h; primary and follow-up small molecule screen); format: cell-based, human
[8] = system: MCC26 cells (VN-MCC); assay: as above; format: cell-based, human
[9] = system: UISO cells (VN-MCC); assay: as above; format: cell-based, human
[10] = system: HACAT cells; assay: qHTS cell viability (CellTiter-Glo, 72 h; primary screen), control cell line; format: cell-based, human
[11] = system: MCC13 cells (VN-MCC); assay: qHTS cell viability (CellTiter-Glo, 72 h; primary and follow-up small molecule screen); format: cell-based, human
[12] = system: six MCC cell lines and four control cell lines; assay: qHTS cell viability, all 10 cell lines screened; format: cell-based; conditions: NPC library
[13] = system: MCC cell lines (WAGA, MKL-1, MKL-2, MCC13, MCC26, UISO); assay: qHTS cell viability, all six MCC cell lines as a group (mean AUC, MCC.avg); format: cell-based, human; conditions: NPC library
[14] = system: control cell lines (HACAT, HEK293T, CRL-7250, NIH-3T3); assay: qHTS cell viability, control cell lines as a group (mean AUC, Control.avg); format: cell-based; conditions: NPC library; mean AUC of control cell lines
[15] = system: VP-MCC cell lines (WAGA, MKL-1, MKL-2); assay: qHTS cell viability, VP-MCC cell lines as a group (mean AUC, VP.MCC.avg); format: cell-based, human; conditions: for VP-MCC_Avg_AUC: mean AUC of VP-MCC cell lines
[16] = NPC library, qHTS dose-response AUC, WAGA
[17] = area under the dose-response curve, WAGA cells, AUC<450 = reduced viability
[18] = NPC library, therapeutic window: Control avg AUC minus VN-MCC avg AUC
[19] = NPC library, qHTS dose-response AUC, CRL7250 control
[20] = area under the dose-response curve, CRL7250 control cells, AUC<450 = reduced viability
[21] = NPC library, qHTS dose-response AUC, MKL2
[22] = area under the dose-response curve, MKL-2 cells, AUC<450 = reduced viability
[23] = NPC library, qHTS dose-response AUC, NIH3T3 control
[24] = area under the dose-response curve, NIH3T3 control cells, AUC<450 = reduced viability
[25] = NPC library, qHTS dose-response AUC, HEK293T control
[26] = area under the dose-response curve, HEK293T control cells; AUC<450 = reduced viability
[27] = NPC library, qHTS dose-response AUC, MKL1
[28] = NPC library, qHTS dose-response AUC, MCC26
[29] = area under the dose-response curve, MCC26 cells; AUC<450 = reduced viability
[30] = NPC library, qHTS dose-response AUC, UISO
[31] = area under the dose-response curve, UISO cells, AUC<450 = reduced viability
[32] = NPC library, qHTS dose-response AUC, HACAT control
[33] = area under the dose-response curve, HACAT control cells, AUC<450 = reduced viability
[34] = NPC library, qHTS dose-response AUC, MCC13
[35] = area under the dose-response curve, MCC13 cells, AUC<450 = reduced viability
[36] = therapeutic window: Control avg AUC minus MCC avg AUC
[37] = mean AUC of all 6 MCC cell lines
[38] = NPC library, therapeutic window: Control avg AUC minus VP-MCC avg AUC
[39] = NPC library; qHTS dose-response AUC, HEK293T control
[40] = NPC library; qHTS dose-response AUC, MCC26
[41] = NPC library, 8-point DRC, area under dose-response curve
[42] = NPC library, 8-point DRC, control cell line

SMILES: CCN(CC)CCNC(=O)c1ccc(NC(C)=O)cc1 [Acecainide hydrochloride]
- WAGA_AUC [1, 16]: 423.417
- WAGA_AUC [1, 17]: 423.417
- Control-VN-MCC ([2]; Control AUC minus VN-MCC AUC): 58.6292
- VN-MCC_Avg_AUC ([2]; NPC library): 419.752
- Control-VN-MCC [2, 18]: 58.6293
- CRL7250_AUC [3, 19]: 485.167
- CRL7250_AUC [3, 20]: 485.167
- MKL2_AUC [4, 21]: 429.744
- MKL2_AUC [4, 22]: 429.744
- NIH3T3_AUC [5, 23]: 480.581
- NIH3T3_AUC [5, 24]: 480.581
- HEK293T_AUC [6, 25]: 458.505
- HEK293T_AUC [6, 26]: 458.505
- MKL1_AUC [7, 27]: 419.008
- MKL1_AUC ([7]; {}): 419.008
- MCC26_AUC [8, 28]: 385.871
- MCC26_AUC [8, 29]: 385.871
- UISO_AUC [9, 30]: 444.571
- UISO_AUC [9, 31]: 444.571
- HACAT_AUC [10, 32]: 489.271
- HACAT_AUC [10, 33]: 489.271
- MCC13_AUC [11, 34]: 428.813
- MCC13_AUC [11, 35]: 428.813
- Control-MCC [12, 36]: 56.4769
- MCC_Avg_AUC [13, 37]: 421.904
- MCC_Avg_AUC ([13]; mean AUC of six MCC cell lines): 421.904
- Control_Avg_AUC [14]: 478.381
- Control-VP-MCC ([15]; Control AUC minus VP-MCC AUC): 54.3246
- VP-MCC_Avg_AUC ([15]; NPC library): 424.056
- Control-VP-MCC [15, 38]: 54.3246

SMILES: CCCCC(CC)CNC(=N)NC(=N)NCCCCCCNC(=N)NC(=N)NCC(CC)CCCC (centres unmarked) [Alexidine dihydrochloride]
- WAGA_AUC [1, 16]: 351.758
- VN-MCC_Avg_AUC ([2]; NPC library): 374.766
- Control-VN-MCC [2, 18]: 32.1955
- CRL7250_AUC [3, 19]: 401.378
- MKL2_AUC [4, 21]: 344.79
- NIH3T3_AUC [5, 23]: 453.563
- HEK293T_AUC [6, 39]: 380.139
- MKL1_AUC [7, 27]: 329.916
- MCC26_AUC [8, 40]: 401.146
- UISO_AUC [9, 30]: 330.63
- HACAT_AUC [10, 32]: 392.766
- MCC13_AUC [11, 34]: 392.522
- Control-MCC [12, 36]: 48.5013
- MCC_Avg_AUC ([13]; mean AUC of six MCC cell lines): 358.46
- Control_Avg_AUC [14]: 406.962
- VP-MCC_Avg_AUC ([15]; NPC library): 342.155
- Control-VP-MCC [15, 38]: 64.8071

SMILES: N=C(N)NC(=O)c1nc(Cl)c(N)nc1N [Amiloride]
- WAGA_AUC [1, 16]: 426.991
- VN-MCC_Avg_AUC ([2]; NPC library): 444.942
- Control-VN-MCC [2, 18]: 44.5863
- CRL7250_AUC [3, 19]: 484.959
- MKL2_AUC [4, 21]: 417.455
- NIH3T3_AUC [5, 23]: 492.231
- HEK293T_AUC [6, 39]: 497.776
- MKL1_AUC [7, 27]: 439.734
- MCC26_AUC [8, 40]: 436.049
- UISO_AUC [9, 30]: 438.294
- HACAT_AUC [10, 32]: 483.146
- MCC13_AUC [11, 34]: 460.482
- Control-MCC [12, 36]: 53.0271
- MCC_Avg_AUC ([13]; mean AUC of six MCC cell lines): 436.501
- Control_Avg_AUC [14]: 489.528
- VP-MCC_Avg_AUC ([15]; NPC library): 428.06
- Control-VP-MCC [15, 38]: 61.468

SMILES: Nc1ccc(C(=O)NCC(=O)O)cc1 [Aminohippuric acid]
- WAGA_AUC [1, 41]: 448.077
- WAGA_AUC [1, 16]: 448.077
- WAGA_AUC [1, 17]: 448.077
- Control-VN-MCC ([2]; Control AUC minus VN-MCC AUC): 57.9205
- Control-VN-MCC ([2]; NPC library, Control AUC minus VN-MCC AUC (therapeutic window)): 57.9205
- VN-MCC_Avg_AUC ([2]; NPC library): 412.211
- CRL7250_AUC [3, 42]: 477.44
- CRL7250_AUC [3, 19]: 477.44
- CRL7250_AUC [3, 20]: 477.44
- MKL2_AUC [4, 41]: 407.303
- MKL2_AUC [4, 21]: 407.303
- MKL2_AUC [4, 22]: 407.303
- NIH3T3_AUC [5, 42]: 454.303
- NIH3T3_AUC [5, 23]: 454.303
- NIH3T3_AUC [5, 24]: 454.303
- HEK293T_AUC [6, 42]: 467.378
- HEK293T_AUC [6, 25]: 467.377
- HEK293T_AUC [6, 26]: 467.377
- MKL1_AUC [7, 41]: 395.372
- MKL1_AUC [7, 27]: 395.372
- MKL1_AUC ([7]; {}): 395.372
- MCC26_AUC [8, 41]: 410.554
- MCC26_AUC [8, 28]: 410.554
- MCC26_AUC [8, 29]: 410.554
- UISO_AUC [9, 41]: 434.505
- UISO_AUC [9, 30]: 434.505
- UISO_AUC [9, 31]: 434.505
- HACAT_AUC [10, 42]: 481.404
- HACAT_AUC [10, 32]: 481.404
- HACAT_AUC [10, 33]: 481.404
- MCC13_AUC [11, 41]: 391.573
- MCC13_AUC [11, 34]: 391.574
- MCC13_AUC [11, 35]: 391.574
- Control-MCC ([12]; Control AUC minus MCC AUC (therapeutic window)): 55.5673
- MCC_Avg_AUC [13, 37]: 414.564
- MCC_Avg_AUC ([13]; mean AUC of six MCC cell lines): 414.564
- Control_Avg_AUC [14]: 470.131
- Control-VP-MCC ([15]; Control AUC minus VP-MCC AUC): 53.2142
- Control-VP-MCC ([15]; NPC library, Control AUC minus VP-MCC AUC (therapeutic window)): 53.2142
- VP-MCC_Avg_AUC ([15]; NPC library): 416.917
